The record followed here is article PMC2678132, “Solution structure of the parvulin-type PPIase domain of Staphylococcus aureus PrsA – Implications for the catalytic mechanism of parvulins” (BMC Structural Biology, 2009).

The structures appear in SMILES notation.

The target of the assay is T1, S. aureus PrsA-PPIase (Staphylococcus aureus, UniProt P60747).
T1 construct: parvulin-type PPIase domain, residues 140-245, GST fusion (pGEX-2T) from E. coli BL21, GST cleaved off by protease; 15N- or 13C/15N-labelled for NMR
Description: NMR titration. It is filed as binding. The note with it: S1-H1 loop; data not shown.

T1 sequence (P60747 140-245): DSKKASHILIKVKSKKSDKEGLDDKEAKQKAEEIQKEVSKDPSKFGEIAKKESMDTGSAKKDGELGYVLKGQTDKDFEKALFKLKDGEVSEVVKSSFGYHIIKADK

As to `O=S(=O)(O)O` [sodium sulphate], the NMR titration result is reported as “Binding of multivalent anions to the S1-H1 loop of PrsA-PPIase was also confirmed by NMR titrations”.
